Measurements reported in patent US12642792B2, “CA2-IL15 fusion proteins for tunable regulation” (Obsidian Therapeutics, Inc., priority 2019, dated 2026).

Columns and labels:
[1] = test system: cord blood-derived NK cells; test: Expression of constitutive and regulated mbIL15 in cord blood NK cells in response to ACZ (FACS); format: cell-based, human; conditions: NK cells transduced with IL15-293
Protocol: Cryopreserved mononuclear cell-fractionated cord blood units were obtained from BioBridge Global. Cord blood was diluted 1:1 with phosphate-buffered saline (PBS) and centrifuged over a cushion of Ficoll-Paque+(Sigma Cat. No. GE17-1440-02). The buffy coat comprising mononuclear cells (MNC) was collected, and the MNC were washed and counted. NK cells were isolated from MNC using EasySep Human NK Cell Isolation Kit (Stemcell Technologies Cat. No. 17955). NK cells were counted and checked for purity by FACS using CD56, CD16, CD3 and viability stain.
One day prior to NK cell isolation as described in Example 8, feeder cells (K562 cells expressing 4-1BBL and mbIL-21) were thawed in complete NK cell media (RPMI with Glutamax (ThermoFisher), 10% heat-inactivated fetal bovine serum (Gibco), 1× Penicillin/Streptomycin, 1 mM Sodium Pyruvate, 1×HEPES, 50 μM 2-Mercaptoethanol). On the day of NK cell isolation, 10×10^6 feeder cells were treated with mitomycin C to inhibit their proliferation and washed to remove excess drug. […] NK cell cultures were expanded by replenishing cell cultures with NK cell media and rhIL2 every two days, and analyzed by FACS for NK cell expansion. […]
mbIL15 expression was determined by flow cytometry using two staining reagents: IL15Ra-Fc and an anti-CD56 antibody. mbIL15+ cell frequency was determined relative to the number of NK cells as determined by the anti-CD56 antibody. […]

TIL = test: Expression of constitutive and regulated mbIL15 in TIL in response to ACZ (flow cytometry); format: cell-based, human; conditions: TIL transduced with IL15-293
Protocol: HEK293T cells were seeded on collagen coated tissue culture plates until 70% confluent. Cells were transfected with pELNS transfer vector carrying constitutive (IL15-292) or regulated (IL15-293) IL15 constructs, as well as packaging plasmids (pRSV.REV, pMDLg/pRRE and OT-BaEVg-002 (SEQ ID NO: 51)) using Lipofectamine 3000 transfection reagent in Opti-MEM media. Media was replaced 6-8 hrs post-transfection with serum-free media. Supernatants containing virus were harvested 24 hr post-transfection, fresh media was added, and supernatants were harvested again at 48 hr post-transfection. Viral supernatants were filtered to remove debris and concentrated by low speed ultracentrifugation. Virus were resuspended, aliquoted and stored at −80 C freezer.
96-well non-coated tissue culture plates were incubated with 35 μg per mL RetroNectin (Takara Bio) in PBS for 2 h at 37° C. or overnight at 4° C. RetroNectin was removed and the plates washed with PBS. […]
mbIL15 expression was determined by flow cytometry using two staining reagents: fluorochrome-conjugated anti-IL15 antibody as well as a recombinant protein comprised of extracellular domain of IL15Ra fused to human IgG1 Fc domain (IL15Ra-Fc). mbIL15+ cell frequency was determined based on co-staining with anti-IL15 and IL15Ra-Fc (identified as the IL15+IL15Ra-Fc+ double positive population).

Human primary T cells = test: In vitro antigen-independent expansion of T cells expressing constitutive or ACZ-regulated mbIL15 (cell numbers by flow cytometry); format: cell-based; conditions: 2 ng/mL exogenous IL15
Protocol: Human primary T cells capable of expressing constitutive mbIL15 or ACZ-regulated mbIL15 were prepared in accordance with methods described in Example 1 above.
After T cell transduction and expansion, CD3/CD28 beads were removed using magnets, cells were washed twice, resuspended in fresh media and counted. Cells were plated in 12-well plates at 1×10^6 in 2 mL. One well of untransduced cells was cultured in the presence of 2 ng/mL IL15 as a control. T cells expressing regulated constructs were cultured in the absence or presence of acetazolamide (ACZ, 30, 10, 3, 1, 0.3 μM). Cell numbers were monitored by flow cytometry every 3-4 days and cells were cultured for 10-12 days. At each time point 100 μL of cells were collected from wells and analyzed by flow cytometry. Cells were split as needed. Cell cultures were maintained in 12-well plates by taking a portion and adding media in a new plate. Volumes for each well were recorded before and after split to calculate final volume in cell number assessment. IL15 or ACZ were replenished at final concentration of the fresh media added during each split.
T cell numbers were determined by flow cytometry. Empty vector (EV) transduced cell numbers decreased to background levels between 3-5 days in the absence of IL15, and cells expanded 11-fold in the presence of 2 ng/mL exogenous IL15 (FIG. 3A). […]

CC(=O)Nc1nnc(S(N)(=O)=O)s1 [ACZ, acetazolamide, reference compound]
Effect of ACZ on mbIL15 in transduced NK [1]: induces CA2 DRD-regulated mbIL15 in transduced NK
Effect of ACZ on mbIL15 in transduced TIL (TIL): induces CA2 DRD-regulated mbIL15 in transduced TIL

exogenous IL15: exogenous IL15 (2 ng/mL) added to empty vector transduced T cells as control [reference compound]
Expansion of empty vector (EV) transduced T cells in the presence of exogenous IL15 (Human primary T cells): 11 -fold
